Legend:
physchem = format: physicochemical; details: aqueous buffer, kinetic from dmso stock, PBS pH 7.0-7.3, 1% DMSO, 25° C.; for solubility: nephelometry, 90 min
Procedure: General Experimental: Nephelometry experiments were performed using untreated Corning® Costar® 96-well black polystyrene plates with clear flat bottoms. Sample stock solutions and serial dilutions were prepared with DriSolv® DMSO purchased from MilliporeSigma. All 100-fold dilutions and replicate experiments were prepared using Gibco® Dulbecco's phosphate-buffered saline (DPBS, no calcium, no magnesium) with a pH range of 7.0-7.3 as aqueous media. […] Nephelometry data was obtained using a NEPHELOstar® microplate reader and processed with MARS data analysis software from BMG LabTech.
Procedure for Nephelometry Experiments: Tested compounds were dissolved in 100% DMSO to make stock solutions of specified concentrations, ranging from 10 mM minimum up to 50 mM maximum. The sample then underwent serial dilution in a 96-well plate (Corning® Costar®). Well A1 of the plate contained 100% DMSO. […] Using a 12 channel multichannel pipette, 2.5 μL of sample from row A was transferred to each well in row B through row H of the plate. Next, 30 μL of PBS (pH=7.0-7.3) was added to row B through row H, providing each well with 32.5 μL. The plate was then incubated for 30 sec with shaking. Finally, 217.5 μL of PBS buffer was added to row B through row H, and the entire plate was incubated with shaking at 25° C. for 90 min. Note: The final volume of DMSO in actual experiments with PBS buffer was 1% throughout the plate. After 90 min, the 96-well plate was analyzed with a NEPHELOstar® instrument and the data was processed with MARS data analysis software.

[1] = Liver microsome stability assay (HLM); format: in vitro ADME; details: human, microsomes, pH 7.4; 3 μM test compound, NADPH; read-out: T½ in HLM
Procedure: General Experimental: Human and mouse liver microsomes were purchased from Xenotech at 20 mg/mL. NADPH (Sigma-Aldrich) 10 mM stocks were prepared in deionized water.
Procedure for Liver Microsome Stability Assay: Test compounds and positive controls were dissolved in 100% DMSO to make 10 mM stock solutions. Verapamil (Sigma-Aldrich) and diphenhydramine (Sigma-Aldrich) were used as positive controls for both human liver microsomes (HLM) and mouse liver microsomes (MLM). The 10 mM stock solutions of test and control compounds were further diluted in potassium phosphate buffer (100 mM, pH 7.4) to 500 μM to ensure that the organic solvent content was <0.2%. The liver microsome (HLM or MLM) assay was prepared in a 1.5 mL Eppendorf tube with a final volume of 1100 μL for duplicate runs. Each reaction contained phosphate buffer (928.4 μL), liver microsomes (55 μL), and test compound (6.6 μL of 500 μM), resulting in a final concentration of 3 μM for the test compound. The reaction was initiated with 110 μL of 10 mM NADPH. Aliquots (100 μL) were removed in duplicate at 0, 5, 10, 15, and 30 min and quenched in […] of 100% cold methanol which contained internal standard (ISTD: d5-7-ethoxy coumarin 2 μM). The aliquots were centrifuged at 12,000 g for 5 min, and the supernatant was transferred and placed in an LC-MS vial. Each time point was assessed by LC-MS/MS, and the area under the m/z curve (AUC), based on the MRM transition, was integrated w.r.t the ISTD. Positive controls were conducted at a final volume of 550 μL to enable a single run for each time point. Negative controls in the absence of NADPH were performed with the test and control compounds, respectively, at a final volume of 150 μL and measured at the most prolonged time point. Control compounds were processed and analyzed like test compounds. Each time point was run in triplicates on LC-MS/MS followed by in-between blank washes to avoid the carryover and to equilibrate the column. Half-life (T1/2) was calculated using the data obtained from LC-MS/MS and by plotting ln (% remaining of the parent prodrug) versus time and performing linear regression to determine slope. Slope=−k and T1/2=0.693/k for first-order kinetics.

[2] = Plasma stability assay (human plasma); format: in vitro ADME; details: 37° C.; for half-life: read-out: T½ in human plasma (converted)
Procedure: General Experimental: Procaine and Procainamide were purchased from Sigma-Aldrich. Human plasma was obtained from BioIVT (Cat. No. […]2N) and 1X Dulbecco's PBS (pH 7.4, Gibco) was obtained from Thermos Fischer. Stock solutions were prepared in 100% DMSO, and suitable dilutions of target analytes were prepared in methanol for method development.
Procedure for Plasma Stability Assay: Test compounds were dissolved in DMSO to make a stock solution of 10 mM and then diluted to 500 μM in buffer (or 70% MeOH). Human plasma was thawed at ambient temperature and is aliquoted ([…]) to a 1.5 mL Eppendorf tube in duplicates (A and B) for each compound. Plasma was incubated at 37° C. for 10 minutes in an incubator shaker at 150 rpm; the reaction was initiated by the addition of the test compound (6.0 μL) and vortex mixing. The total reaction volume was 1000 μL where the final organic solvent concentrations were 0.6% MeOH and 0.03% DMSO. The spiked plasma samples were incubated at 37° C. for 4 hrs. The reactions were terminated at time points 0, 15, 30, 60, 120, 180, and 240 min by taking a 100 μL aliquot from the test incubation mixture and immediately quenching it in ice-cold acetonitrile containing internal standard (150 μL with 2 μM ISTD), followed by a quick vortex mixing. In addition, matrix blank was prepared by adding acetonitrile solutions containing ISTD to plasma samples without any of the analytes or control compounds. Also, an additional tube was made to measure compound degradation in PBS buffer. The samples were centrifuged at 15000 rpm for 25 min at 4° C. The supernatant was transferred to an LC-MS vial for analysis by LC/MS-MS. Each time point was run in duplicates followed by in-between blank washes to avoid the carryover and to equilibrate the column. Half-life (T1/2) was calculated using the data obtained from LC-MS/MS and by plotting ln (% remaining of the parent prodrug) versus time and performing linear regression to determine slope. Slope=−k and T1/2=0.693/k for first-order kinetics.
These positive controls were run in parallel to test the systems for competency.

For C=C(C)[C@@H]1CCC(C)=C[C@H]1c1c(O)cc(CCCCC)cc1OC(=O)OCCOP(=O)(O)O.N.N [29a, (1′R,2′R)-6-hydroxy-5′-methyl-4-pentyl-2′-(prop-1-en-2-yl)-1′,2′,3′,4′-tetrahydro-[1,1′-biphenyl]-2-yl(2-(phosphonooxy)ethyl) carbonate di-ammonium salt], the solubility (physchem) was over 500 µM, the half-life [1] was 0.7 h and the half-life [2] was 16.5 h.
C=C(C)[C@@H]1CCC(C)=C[C@H]1c1c(O)cc(CCCCC)cc1OC(=O)C1(OP(=O)(O)OCCOCCOC)CC1.N [14j, 1-((((1′R,2′R)-6-hydroxy-5′-methyl-4-pentyl-2′-(prop-1-en-2-yl)-1′,2′,3′,4′-tetrahydro-[1,1′-biphenyl]-2-yl)oxy)carbonyl)cyclopropyl (2-(2-methoxyethoxy)ethyl) phosphate ammonium salt] showed a solubility (physchem) of over 500 µM, a half-life [1] of 0.4 h and a half-life [2] of over 4 h.
With C=C(C)[C@@H]1CCC(C)=C[C@H]1c1c(O)cc(CCCCC)cc1OC(=O)C(C)(C)OP(=O)(O)O.N.N [7e, 1-(((1′R,2′R)-6-hydroxy-5′-methyl-4-pentyl-2′-(prop-1-en-2-yl)-1′,2′,3′,4′-tetrahydro-[1,1′-biphenyl]-2-yl)oxy)-2-methyl-1-oxopropan-2-yl phosphate di-ammonium salt] the solubility (physchem) was over 500 µM and the half-life ([2]; unit min) was 0.4 h.
Work on C=C(C)[C@@H]1CCC(C)=C[C@H]1c1c(O)cc(CCCCC)cc1OC(=O)NCCCOP(=O)(O)O.N.N [38c, (1′R,2′R)-6-hydroxy-5′-methyl-4-pentyl-2′-(prop-1-en-2-yl)-1′,2′,3′,4′-tetrahydro-[1,1′-biphenyl]-2-yl (3-(phosphonooxy)propyl)carbamate di-ammonium salt] yielded a solubility (physchem) of over 500 µM, a half-life [1] of 1.22 h and a half-life [2] of over 4 h.
For C=C(C)[C@@H]1CCC(C)=C[C@H]1c1c(O)cc(CCCCC)cc1OC(=O)C1(OP(=O)(O)OCC(CCC)CCC)CC1.N [14h, 1-((((1′R,2′R)-6-hydroxy-5′-methyl-4-pentyl-2′-(prop-1-en-2-yl)-1′,2′,3′,4′-tetrahydro-[1,1′-biphenyl]-2-yl)oxy)carbonyl)cyclopropyl (2-propylpentyl) phosphate ammonium salt], the solubility (physchem) was 66 ± 3.17 µM, the half-life [1] was 0.433 h and the half-life [2] was over 4 h.
Compound C=C(C)[C@@H]1CCC(C)=C[C@H]1c1c(O)cc(CCCCC)cc1OC(=O)C(C)OP(=O)(O)O.N.N (stereo partly drawn) [7d, 1-(((1′R,2′R)-6-hydroxy-5′-methyl-4-pentyl-2′-(prop-1-en-2-yl)-1′,2′,3′,4′-tetrahydro-[1,1′-biphenyl]-2-yl)oxy)-1-oxopropan-2-yl phosphate di-ammonium salt] has a solubility (physchem) of over 500 µM, a half-life [1] of 0.833 h and a half-life ([2]; unit min) of 0.35 h.
In the case of C=C(C)[C@@H]1CCC(C)=C[C@H]1c1c(O)cc(CCCCC)cc1OC(=O)C1(OP(=O)(O)OCCCCCCCCCC)CC1.N [14g, decyl (1-((((1′R,2′R)-6-hydroxy-5′-methyl-4-pentyl-2′-(prop-1-en-2-yl)-1′,2′,3′,4′-tetrahydro-[1,1′-biphenyl]-2-yl)oxy)carbonyl)cyclopropyl) phosphate ammonium salt], the solubility (physchem) is reported as 75 ± 2.14 µM, the half-life [1] is reported as over 0.5 h and the half-life [2] is reported as over 4 h.
With C=C(C)[C@@H]1CCC(C)=C[C@H]1c1c(O)cc(CCCCC)cc1OC(=O)C1(OP(=O)(O)OCCC(C)C)CC1.N [14c, 1-((((1′R,2′R)-6-hydroxy-5′-methyl-4-pentyl-2′-(prop-1-en-2-yl)-1′,2′,3′,4′-tetrahydro-[1,1′-biphenyl]-2-yl)oxy)carbonyl)cyclopropyl isopentyl phosphate ammonium salt] the solubility (physchem) was 345 ± 4.51 µM, the half-life [1] was 0.4 h and the half-life [2] was over 4 h.
C=C(C)[C@@H]1CCC(C)=C[C@H]1c1c(O)cc(CCCCC)cc1OC(=O)OCOP(=O)(O)O.N.N [compound 24, (1′R,2′R)-6-hydroxy-5′-methyl-4-pentyl-2′-(prop-1-en-2-yl)-1′,2′,3′,4′-tetrahydro-[1,1′-biphenyl]-2-yl ((phosphonooxy)methyl) carbonate di-ammonium salt] gave a solubility (physchem) of over 500 µM and a half-life [2] of over 4 h.
C=C(C)[C@@H]1CCC(C)=C[C@H]1c1c(O)cc(CCCCC)cc1OC(=O)OCCCOP(=O)(O)O.N.N [29b, (1′R,2′R)-6-hydroxy-5′-methyl-4-pentyl-2′-(prop-1-en-2-yl)-1′,2′,3′,4′-tetrahydro-[1,1′-biphenyl]-2-yl(3-(phosphonooxy)propyl) carbonate di-ammonium salt] showed a solubility (physchem) of over 500 µM, a half-life [1] of 0.317 h and a half-life [2] of over 4 h.
With C=C(C)[C@@H]1CCC(C)=C[C@H]1c1c(O)cc(CCCCC)cc1OC(=O)N(C)CCOP(=O)(O)O.N.N [38b, (1′R,2′R)-6-hydroxy-5′-methyl-4-pentyl-2′-(prop-1-en-2-yl)-1′,2′,3′,4′-tetrahydro-[1,1′-biphenyl]-2-yl methyl(2-(phosphonooxy)ethyl)carbamate di-ammonium salt] the solubility at 90 min (physchem) was over 500 µM, the half-life at 3 μM [1] was 3.83 h and the half-life at 3 μM ([2]; read-out: T½ in human plasma) was over 4 h.
For C=C(C)[C@@H]1CCC(C)=C[C@H]1c1c(O)cc(CCCCC)cc1OC(=O)NCCOP(=O)(O)O.N.N [38a, (1′R,2′R)-6-hydroxy-5′-methyl-4-pentyl-2′-(prop-1-en-2-yl)-1′,2′,3′,4′-tetrahydro-[1,1′-biphenyl]-2-yl(2-(phosphonooxy)ethyl)carbamate di-ammonium salt], the solubility (physchem) was over 500 µM, the half-life [1] was 2.02 h and the half-life [2] was over 4 h.
Compound C=C(C)[C@@H]1CCC(C)=C[C@H]1c1c(O)cc(CCCCC)cc1OC(=O)C1(OP(=O)(O)OCc2ccccc2)CC1.N [compound 8, benzyl (1-((((1′R,2′R)-6-hydroxy-5′-methyl-4-pentyl-2′-(prop-1-en-2-yl)-1′,2′,3′,4′-tetrahydro-[1,1′-biphenyl]-2-yl)oxy)carbonyl)cyclopropyl) phosphate ammonium salt] has a solubility (physchem) of 287 ± 13 µM, a half-life [1] of 0.383 h and a half-life [2] of 5.3 h.

— patent publication US20250108064A1, “PHOSPHATE PRODRUGS OF CANNABINOIDS” (priority 2021, published 2025)
